In ChEMBL document CHEMBL5360532, “Current scenario of quinolone hybrids with potential antibacterial activity against ESKAPE pathogens” (Eur J Med Chem, 2023):
Converted amounts (≈) assume the structure as drawn.

Tests used:
Type in all cases: functional
[1] = system: Escherichia coli; experiment: Antibacterial activity against Escherichia coli ATCC 25922 assessed as bacterial growth inhibition by agar disc diffusion assay
[2] = system: Pseudomonas aeruginosa; experiment: Antibacterial activity against Pseudomonas aeruginosa ATCC 27853 assessed as bacterial growth inhibition by agar disc diffusion assay
[3] = system: Staphylococcus aureus; experiment: Antibacterial activity against Staphylococcus aureus ATCC 25923 assessed as bacterial growth inhibition by agar disc diffusion assay
[4] = system: Staphylococcus aureus; experiment: Antibacterial activity against Staphylococcus aureus clinical isolate 1 assessed as bacterial growth inhibition by agar disc diffusion assay
[5] = system: Escherichia coli; experiment: Antibacterial activity against Escherichia coli clinical isolate 1 assessed as bacterial growth inhibition by agar disc diffusion assay
[6] = system: Pseudomonas aeruginosa; experiment: Antibacterial activity against Pseudomonas aeruginosa clinical isolate 1 assessed as bacterial growth inhibition by agar disc diffusion assay
[7] = system: Alternaria; experiment: Antifungal activity against Alternaria assessed as fungal growth inhibition measured after 7 days by agar disc diffusion assay; conditions: 168 h, time 7 day
[8] = system: Fusarium oxysporum f. sp. lycopersici; experiment: Antifungal activity against Fusarium oxysporum f. sp. lycopersici assessed as fungal growth inhibition measured after 7 days by agar disc diffusion assay; conditions: 168 h, time 7 day
[9] = system: Acinetobacter baumannii; experiment: Antibacterial activity against Acinetobacter baumannii assessed as bacterial growth inhibition by agar dilution assay
[10] = system: Pseudomonas aeruginosa; experiment: Antibacterial activity against Pseudomonas aeruginosa ATCC 27853 assessed as bacterial growth inhibition by agar dilution assay
[11] = system: Staphylococcus aureus; experiment: Antibacterial activity against Staphylococcus aureus assessed as bacterial growth inhibition by agar dilution assay
[12] = system: Staphylococcus aureus; experiment: Antibacterial activity against methicillin resistant Staphylococcus aureus assessed as bacterial growth inhibition by agar dilution assay
[13] = system: Escherichia coli; experiment: Antibacterial activity against Escherichia coli ATCC 25922 assessed as bacterial growth inhibition by agar dilution assay
[14] = system: Klebsiella pneumoniae; experiment: Antibacterial activity against Klebsiella pneumoniae assessed as bacterial growth inhibition by agar dilution assay
[15] = system: Staphylococcus aureus; experiment: Antibacterial activity against Staphylococcus aureus ATCC 25923 assessed as bacterial growth inhibition by agar dilution assay
[16] = system: Staphylococcus aureus; experiment: Antibacterial activity against Staphylococcus aureus ATCC 29213 assessed as bacterial growth inhibition by agar dilution assay
[17] = system: Staphylococcus aureus; experiment: Antibacterial activity against methicillin resistant Staphylococcus aureus assessed as bacterial growth inhibition measured after 24 hrs by serial dilution method
[18] = system: Escherichia coli; experiment: Antibacterial activity against Escherichia coli assessed as bacterial growth inhibition measured after 24 hrs by serial dilution method
[19] = system: Staphylococcus aureus; experiment: Antibacterial activity against Staphylococcus aureus assessed as bacterial growth inhibition by serial dilution method
[20] = system: Pseudomonas aeruginosa; experiment: Antibacterial activity against Pseudomonas aeruginosa assessed as bacterial growth inhibition by serial dilution method
[21] = system: Acinetobacter baumannii; experiment: Antibacterial activity against Acinetobacter baumannii assessed as bacterial growth inhibition by serial dilution method
[22] = system: Escherichia coli; experiment: Antibacterial activity against Escherichia coli assessed as bacterial growth inhibition by serial dilution method
[23] = system: Klebsiella pneumoniae; experiment: Antibacterial activity against Klebsiella pneumoniae assessed as bacterial growth inhibition by serial dilution method
[24] = system: Escherichia coli; experiment: Antibacterial activity against Escherichia coli assessed as zone of inhibition at 250 ug/ml by agar well diffusion assay; conditions: read-out: IZ
[25] = system: Klebsiella pneumoniae; experiment: Antibacterial activity against Klebsiella pneumoniae assessed as zone of inhibition at 250 ug/ml by agar well diffusion assay; conditions: read-out: IZ
[26] = system: Pseudomonas aeruginosa; experiment: Antibacterial activity against Pseudomonas aeruginosa assessed as zone of inhibition at 250 ug/ml by agar well diffusion assay; conditions: read-out: IZ
[27] = system: Staphylococcus aureus; experiment: Antibacterial activity against Staphylococcus aureus assessed as zone of inhibition at 250 ug/ml by agar well diffusion assay; conditions: read-out: IZ
[28] = system: Staphylococcus aureus; experiment: Antibacterial activity against vancomycin-intermediate methicillin resistant Staphylococcus aureus ATCC 700788 assessed as bacterial growth inhibition measured after 16 to 18 hrs by serial dilution method; conditions: time 16-18 hrs
[29] = system: Staphylococcus aureus; experiment: Antibacterial activity against Staphylococcus aureus ATCC 6538p assessed as bacterial growth inhibition by agar dilution method
[30] = system: Staphylococcus epidermidis; experiment: Antibacterial activity against Staphylococcus epidermidis ATCC 12228 assessed as bacterial growth inhibition by agar dilution method
[31] = system: Bacillus subtilis; experiment: Antibacterial activity against Bacillus subtilis PTCC 1023 assessed as bacterial growth inhibition by agar dilution method
[32] = system: Escherichia coli; experiment: Antibacterial activity against Escherichia coli ATCC 8739 assessed as bacterial growth inhibition by agar dilution method
[33] = system: Klebsiella pneumoniae; experiment: Antibacterial activity against Klebsiella pneumoniae ATCC 10031 assessed as bacterial growth inhibition by agar dilution method
[34] = system: Enterobacter cloacae; experiment: Antibacterial activity against Enterobacter cloacae PTCC 1003 assessed as bacterial growth inhibition by agar dilution method
[35] = system: Aspergillus niger; experiment: Antifungal activity against Aspergillus niger assessed as fungal growth inhibition by agar cup diffusion assay
[36] = system: Aspergillus fumigatus; experiment: Antifungal activity against Aspergillus fumigatus assessed as fungal growth inhibition by agar cup diffusion assay
[37] = system: Candida albicans; experiment: Antifungal activity against Candida albicans assessed as fungal growth inhibition measured after 24 hrs by agar cup diffusion assay
[38] = system: Staphylococcus aureus; experiment: Antibacterial activity against clinical isolate aminoglycosides/tetracycline/methicillin resistant Staphylococcus aureus NRS 1 assessed as bacterial growth inhibition measured after 16 to 18 hrs by serial dilution method; conditions: time 16-18 hrs
[39] = system: Staphylococcus aureus; experiment: Antibacterial activity against clinical isolate erythromycin/methicillin resistant Staphylococcus aureus NRS 70 assessed as bacterial growth inhibition measured after 16 to 18 hrs by serial dilution method; conditions: time 16-18 hrs
[40] = system: Staphylococcus aureus; experiment: Antibacterial activity against clinical isolate oxacillin/tetracycline/methicillin resistant Staphylococcus aureus NRS 100 assessed as bacterial growth inhibition measured after 16 to 18 hrs by serial dilution method; conditions: time 16-18 hrs
[41] = system: Staphylococcus aureus; experiment: Antibacterial activity against clinical isolate gentamycin/methicillin resistant Staphylococcus aureus NRS 108 assessed as bacterial growth inhibition measured after 16 to 18 hrs by serial dilution method; conditions: time 16-18 hrs
[42] = system: Staphylococcus aureus; experiment: Antibacterial activity against clinical isolate linezolid/methicillin resistant Staphylococcus aureus NRS 271 assessed as bacterial growth inhibition measured after 16 to 18 hrs by serial dilution method; conditions: time 16-18 hrs
[43] = system: Staphylococcus aureus; experiment: Antibacterial activity against fluoroquinolone/methicillin resistant Staphylococcus aureus clinical isolate 19-25 assessed as bacterial growth inhibition measured after 16 to 18 hrs by serial dilution method; conditions: time 16-18 hrs
[44] = system: Staphylococcus aureus; experiment: Antibacterial activity against fluoroquinolone/methicillin resistant Staphylococcus aureus clinical isolate 19-26 assessed as bacterial growth inhibition measured after 16 to 18 hrs by serial dilution method; conditions: time 16-18 hrs
[45] = system: Staphylococcus aureus; experiment: Antibacterial activity against fluoroquinolone/methicillin resistant Staphylococcus aureus clinical isolate 19-27 assessed as bacterial growth inhibition measured after 16 to 18 hrs by serial dilution method; conditions: time 16-18 hrs
[46] = system: Staphylococcus aureus; experiment: Antibacterial activity against Staphylococcus aureus Newman assessed as bacterial growth inhibition measured after 16 to 18 hrs by serial dilution method; conditions: time 16-18 hrs
[47] = system: Staphylococcus aureus; experiment: Antibacterial activity against vancomycin-intermediate methicillin resistant Staphylococcus aureus ATCC 700699 assessed as bacterial growth inhibition measured after 16 to 18 hrs by serial dilution method; conditions: time 16-18 hrs
[48] = system: Staphylococcus aureus; experiment: Antibacterial activity against methicillin resistant Staphylococcus aureus ATCC 33591 assessed as bacterial growth inhibition measured after 16 to 18 hrs by serial dilution method; conditions: time 16-18 hrs
[49] = system: Staphylococcus aureus; experiment: Antibacterial activity against methicillin resistant Staphylococcus aureus ATCC 43300 assessed as bacterial growth inhibition measured after 16 to 18 hrs by serial dilution method; conditions: time 16-18 hrs

`CCOP(=O)(OCC)C(NS(=O)(=O)Nc1ccc(F)cc1)c1cc2cccc(C)c2[nH]c1=O` (stereo unspecified) showed an MIC [1] of 0.5 mg/L (≈ 1.01 µM), an MIC [2] of 0.5 mg/L (≈ 1.01 µM) and an MIC [3] of 0.5 mg/L (≈ 1.01 µM). The MIC [4] was 0.5 mg/L (≈ 1.01 µM), the MIC [5] was 0.5 mg/L (≈ 1.01 µM) and the MIC [6] was 0.5 mg/L (≈ 1.01 µM). The MIC [7] was 0.125 mg/L (≈ 0.251 µM) and the MIC [8] was 0.125 mg/L (≈ 0.251 µM).

`CCOC(=O)c1cn(Cc2nc3ccccc3n2Cc2ccccc2F)c2cc(Cl)c(F)cc2c1=O` was tested, and the MIC [9] was 1 mg/L (≈ 1.97 µM), the MIC [10] was 1 mg/L (≈ 1.97 µM) and the MIC [11] was 1 mg/L (≈ 1.97 µM). It also gave an MIC [12] of 1 mg/L (≈ 1.97 µM), an MIC [13] of 1 mg/L (≈ 1.97 µM) and an MIC [14] of 1 mg/L (≈ 1.97 µM). The MIC [15] was 1 mg/L (≈ 1.97 µM) and the MIC [16] was 1 mg/L (≈ 1.97 µM).

In the case of `COc1c(N2CCCC(N(C)C(=O)c3cccnc3)C2)c(F)cc2c(=O)c(C(=O)O)cn(C3CC3)c12` (stereo unspecified), the MIC [17] is reported as 0.078 mg/L (≈ 0.158 µM) and the MIC [18] is reported as 0.078 mg/L (≈ 0.158 µM).

Compound `Cc1ccc(/N=C(\N2CCN(c3cc4c(cc3F)c(=O)c(C(=O)O)cn4C3CC3)CC2)C(F)(F)F)cc1` has an MIC [19] of 0.039 mg/L (≈ 0.0755 µM), an MIC [20] of 0.039 mg/L (≈ 0.0755 µM) and an MIC [21] of 0.039 mg/L (≈ 0.0755 µM). For the same compound, the MIC [22] was 0.039 mg/L (≈ 0.0755 µM) and the MIC [23] was 0.039 mg/L (≈ 0.0755 µM).

Work on `Cc1ncc([N+](=O)[O-])n1CC(C)OC(=O)c1cn(C2CC2)c2cc(N3CCNCC3)c(F)cc2c1=O` (stereo unspecified) yielded a zone of inhibition at 250 µg/mL [24] of 25 mm, a zone of inhibition at 250 µg/mL [25] of 25 mm and a zone of inhibition at 250 µg/mL [26] of 25 mm. For the same compound, the zone of inhibition at 250 µg/mL [27] was 25 mm and the MIC [28] was ≤ 0.17 mg/L.

`COc1cc(OC)nc(/N=N/N2CCN(c3cc4c(cc3F)c(=O)c(C(=O)C(C(C)=O)C(C)=O)cn4C3CC3)CC2)n1` was tested, and the MIC [29] was 0.015 mg/L (≈ 0.0259 µM), the MIC [30] was 0.015 mg/L (≈ 0.0259 µM) and the MIC [31] was 0.015 mg/L (≈ 0.0259 µM). The MIC [32] was 0.015 mg/L (≈ 0.0259 µM), the MIC [33] was 0.015 mg/L (≈ 0.0259 µM) and the MIC [34] was 0.015 mg/L (≈ 0.0259 µM).

With `COC(=O)c1cn(C2CC2)c2cc(N3CCN(CC(=O)OC(C)Cn4c([N+](=O)[O-])cnc4C)CC3)c(F)cc2c1=O` (stereo unspecified) the zone of inhibition at 250 µg/mL [24] was 19 mm, the zone of inhibition at 250 µg/mL [25] was 19 mm and the zone of inhibition at 250 µg/mL [26] was 19 mm. It also gave a zone of inhibition at 250 µg/mL [27] of 19 mm.

In the case of `CC(=O)N1CCN(c2ccc(OCC3COC(Cn4ccnc4)(c4ccc(Cl)cc4Cl)O3)cc2)CC1` (stereo unspecified) [KETOCONAZOLE], the MIC [35] is reported as 10.8 mg/L (≈ 20.3 µM), the MIC [36] is reported as 11.4 mg/L (≈ 21.5 µM) and the MIC [37] is reported as 2.6 mg/L (≈ 4.89 µM).

`COc1c(N2C[C@@H]3CCCN[C@@H]3C2)c(F)cc2c(=O)c(C(=O)O)cn(C3CC3)c12` [MOXIFLOXACIN] was tested, and the MIC [17] was 0.078 mg/L (≈ 0.194 µM) and the MIC [18] was 0.078 mg/L (≈ 0.194 µM).

For `CN[C@H](CC(C)C)C(=O)N[C@H]1C(=O)N[C@@H](CC(N)=O)C(=O)N[C@H]2C(=O)N[C@H]3C(=O)N[C@H](C(=O)N[C@H](C(=O)O)c4cc(O)cc(O)c4-c4cc3ccc4O)[C@H](O)c3ccc(c(Cl)c3)Oc3cc2cc(c3O[C@@H]2O[C@H](CO)[C@@H](O)[C@H](O)[C@H]2O[C@H]2C[C@](C)(N)[C@H](O)[C@H](C)O2)Oc2ccc(cc2Cl)[C@H]1O` [VANCOMYCIN], the MIC [38] was 0.78 mg/L (≈ 0.538 µM), the MIC [39] was 0.78 mg/L (≈ 0.538 µM) and the MIC [40] was 0.78 mg/L (≈ 0.538 µM). The MIC [41] was 0.78 mg/L (≈ 0.538 µM), the MIC [42] was 0.78 mg/L (≈ 0.538 µM) and the MIC [43] was 0.78 mg/L (≈ 0.538 µM). For the same compound, the MIC [44] was 0.78 mg/L (≈ 0.538 µM), the MIC [45] was 0.78 mg/L (≈ 0.538 µM) and the MIC [46] was 0.78 mg/L (≈ 0.538 µM). For the same compound, the MIC [28] was 0.78 mg/L (≈ 0.538 µM), the MIC [47] was 0.78 mg/L (≈ 0.538 µM) and the MIC [48] was 0.78 mg/L (≈ 0.538 µM). The MIC [49] was 0.78 mg/L (≈ 0.538 µM).
